This is an account of results in patent US12251400B2, “Liquid concentrates of calcium and magnesium” (BIOLINK LIFE SCIENCES, INC., priority 2019, dated 2025).

This assay in a line: In vitro assessment of phosphate binding. As to conditions: 24 hours post-mixing. The protocol: Test Preparations: Solutions of the test article (calcium propionate and magnesium propionate) and control article (calcium acetate) are prepared in deionized, purified water having 18 MO or greater resistance. The pH of each solution is adjusted to the desired value by the addition of concentrated hydrochloric acid or sodium hydroxide, as appropriate.
Tests and Assays: An HPLC method with conductivity detection was developed and validated for use in the determination of propionate, acetate and phosphate. HPLC analysis is performed using a Dionex Aquion ion chromatography system Detection of the anionic species is enabled using a Dionex ED50 Electrochemical Detector, operating in Conductivity Mode. Limits of Detection and Quantitation are enhanced through the use of a Dionex Anion Self-Regenerating Suppressor. After assay-specific development and verification of assay performance is completed, the analysis of phosphate and propionate or acetate is performed by sampling the test solution and diluting it, if necessary, to a concentration within the linear range of the Assay. The sample is then injected onto the HPLC column and eluted with a sodium hydroxide gradient. Data is acquired using Dionex Chromeleon® software. […]

Consider `CC(=O)[O-].CC(=O)[O-].[Ca+2]` [calcium acetate], for which the Pi binding result was “about 60%” (pH 4.5) and “over 90%” (pH 6.8).
